Test results reported in patent US9006394B2, “Peptide-presenting surfaces for long-term culture of pluripotent cells” (Wisconsin Alumni Research Foundation, priority 2008, dated 2015).
Ends that are not written are not given here.

Key:
hESCs (H1 and H9) = assay: hESC culture for 6 days on peptide-AT SAM arrays, Oct-4 and SSEA-4 staining; format: cell-based, human
Experimental: hESCs were passaged to SAMs of peptide-AT conjugates on gold in mTeSR™1 optionally supplemented with 10 ng/ml heregulin-β1 (Peprotech; Rocky Hill, N.J.) and 5 μM Y-27632 (Calbiochem; San Diego, Calif.). […] Some surfaces presented peptide-AT conjugates of only vitronectin GBP (SEQ ID NO:1), fibronectin GBP (SEQ ID NO:2) or bone sialoprotein GBP (SEQ ID NO:3) Alternatively, some surfaces presented peptide-AT conjugates of only the integrin-binding peptide (SEQ ID NO:5), another bioactive peptide derived from fibronectin (SEQ ID NO:6), the FGF receptor binding peptide (SEQ ID NO:4), the laminin-derived bioactive peptide (SEQ ID NO:7), […] (SEQ ID NO: 8) or […] (SEQ ID NO: 9). Furthermore, some surfaces presented separate peptide-AT conjugates of the integrin-binding peptide (SEQ ID NO:5) and FGF receptor binding peptide (SEQ ID NO:4); the integrin-binding peptide (SEQ ID NO:5) and vitronectin GBP (SEQ ID NO:1); the integrin-binding peptide (SEQ ID NO:5) and bioactive peptide derived from fibronectin (SEQ ID NO:6); and the vitronectin GBP (SEQ ID NO:1) and […] (SEQ ID NO: 9). The density of the peptides on the surface varied from 0.5% to 25% (see, FIG. 1).
Images were collected with a Hamamatsu (Bridgewater, N.J.) Digital Camera mounted onto an Olympus IX81 Microscope. […]

hESCs = assay: Long-term (3 months) culture on defined surfaces, markers of pluripotency; format: cell-based, human; conditions: 3 months of continuous passaging
From the text: Preferably, one spots ATs onto an inert background to form self-assembling monolayers (SAMs). See, e.g., Derda et al., supra; Derda R, et al., “Solid-phase synthesis of alkanethiols for the preparation of self-assembled monolayers,” Langmuir 23:11164-11167 (2007); and Houseman B & Mrksich M, “Efficient solid-phase synthesis of peptide-substituted alkanethiols for the preparation of substrates that support the adhesion of cells,” J. Org. Chem. 63:7552-7555 (1998), each of which is incorporated herein by reference as if set forth in its entirety. For example, a background can be formed of perfluoro-AT, which can be both cytophobic (i.e., repel cells) and solvophobic (i.e., repel solvents). First, a gold-coated surface can be coated with a perfluoro-AT monolayer, either leaving areas (i.e., holes) in the monolayer for the elements of an array or creating areas in the monolayer for the elements of the array in a subsequent step. Then, ATs coupled to a peptide, such as an GBP as described herein, can be attached to the substrate in the holes to complete the monolayer and to present ligands for pluripotent cell attachment to the surface. Surface density of the GBPs can be controlled using mixed SAMs of peptide-ATs and non-adhesive glucamine-ATs. […]
Flow cytometry data was obtained using a FACSCalibur™ (BD Biosciences) and analyzed using FlowJo Software (Tree Star, Inc.; Ashland, Oreg.). […]

GKKQRFRHRNRKG (not fully specified (C-terminus); listed as Homo sapiens)
cell attachment and self-renewal, presence of Oct-4 and SSEA-4 after 6 days (hESCs (H1 and H9)): best supported both cell attachment and self-renewal | markers of pluripotency after 3 months of culture (hESCs): maintained high levels of markers of pluripotency | markers of pluripotency after 3 months of culture (hESCs; listed as SEQ ID NO:1): maintained at high levels
